Measurements reported in PMC8772704, “Quantification of Fosfomycin in Combination with Nine Antibiotics in Human Plasma and Cation-Adjusted Mueller-Hinton II Broth via LCMS” (Antibiotics, 2022).

How the values were obtained:
[1] = Plasma concentrations in four patients on fosfomycin-based combination therapy (pilot clinical feasibility study, LCMS/MS)
Experimental: For 20 µL of plasma/CAMHB sample, 20 µL of water and 20 µL of stable-isotope as internal standard (IS) were added and vortexed. 180 µL of acetonitrile was added for protein precipitation and subsequently removed by centrifugation (12,700 rpm for 10 min at 25 °C). Finally, 15 µL of the supernatant was diluted with 225 µL formic acid in water (0.1% v/v), and 10 µL was injected for LCMS/MS analysis. For the calibration curve and QCs, 20 µL of the corresponding antibiotic standard working solution was added instead of water.
Samples were analyzed using a Nexera X2 LCMS 8060 system (Shimadzu, Kyoto, Japan). […] Electrospray ionization employing positive and negative ion mode with multiple reaction monitoring was used for analyte quantification (Table S1). Data were acquired and analyzed using Shimadzu LabSolutions (Version 5.97).
The assay method described in this paper has been applied to a pilot clinical feasibility study to evaluate the proportion of patients with sub-optimal β-lactam levels and the need for dose adjustments in infected patients with unpredictable pharmacokinetics. We described a case series of four patients where they received in vitro guided antibiotic combination therapy using a fosfomycin-based combination regimen to treat a carbapenem-resistant Gram-negative bacteria infection. These four patients were recruited into the BLAST-2 study as the combination regimen contains a β-lactam antibiotic. In this case series, two were undergoing intermittent hemodialysis, and two patients had normal renal function. In the two patients on hemodialysis, they were on a dosing regimen of 8 g of fosfomycin on dialysis days (3 g at least 4 h before dialysis session and 5 g after completion of dialysis). The remaining two patients received 8 g of fosfomycin given every 8 h as a prolonged infusion.
Blood samples (2–3 mL from an indwelling catheter) were collected four times over a dosing interval of the β-lactam dosing regimen and centrifuged (10 min at 3000 rpm) (Eppendorf 5425R). The resultant plasma was stored (within 15 min of collection) at −80 °C until assay.

[2] = Long-term storage stability of antibiotics in combination with fosfomycin spiked in plasma/CAMHB (−30 °C, −80 °C); type: physicochemical; settings: for Mean accuracy (%), Table S15 / Mean accuracy (%), Table S17 / Mean accuracy (%), Table S16 / Mean accuracy (%), Table S18: CAMHB; for Mean accuracy (%), Table S15 / Mean accuracy (%), Table S17 / Mean accuracy (%), Table S16 / Mean accuracy (%), Table S18 / Mean accuracy (%), Table S11 / Mean accuracy (%), Table S13 / Mean accuracy (%), Table S12 / Mean accuracy (%), Table S14: combination with fosfomycin; for Mean accuracy (%), Table S15 / Mean accuracy (%), Table S11: 2 weeks at -30 °C; for Mean accuracy (%), Table S17 / Mean accuracy (%), Table S13: 2 weeks at -80 °C; for Mean accuracy (%), Table S16 / Mean accuracy (%), Table S12: 4 weeks at -30 °C; for Mean accuracy (%), Table S18 / Mean accuracy (%), Table S14: 4 weeks at -80 °C; for Mean accuracy (%), Table S11 / Mean accuracy (%), Table S13 / Mean accuracy (%), Table S12 / Mean accuracy (%), Table S14: plasma
Experimental: (§1) The stability of fosfomycin in combination with other antibiotics in plasma/CAMHB was evaluated under various operational conditions. Spiked plasma/CAMHB samples were evaluated at 7 h and 15 h in the autosampler at 4 °C. Long-term stability was evaluated up to 4 weeks of antibiotic-spiked plasma/CAMHB samples at LQC, MQC, and HQC concentrations stored at −30 °C and −80 °C.

[3] = 32-day stability of stock solutions stored at −80 °C; type: physicochemical; settings: stock solution stored at -80 °C; peak area Day 32 vs Day 1
Experimental: Stability of stock solutions
All stock solutions of antibiotics and their corresponding stable-isotope variants were measured prior to cold storage at -80 °C and tested at 32 days later.
Stability was determined by comparing the peak area of each drug between its Day 1 and Day 32 measurement. Acceptable criteria for stability was met if the […]

[4] = Autosampler stability at 4 °C of extracted antibiotic-spiked plasma/CAMHB samples; settings: for Mean accuracy (%), Table S8 / Mean accuracy (%), Table S10: CAMHB extracted samples; for Mean accuracy (%), Table S8 / Mean accuracy (%), Table S7: 7 h autosampler 4 °C; for Mean accuracy (%), Table S10 / Mean accuracy (%), Table S9: 15 h autosampler 4 °C; for Mean accuracy (%), Table S7 / Mean accuracy (%), Table S9: plasma extracted samples
Experimental: as §1

[5] = HQC: nominal mg/L CAZ 150, FEP 200, PIP 250, ATM 300, MEM 200, DOR 175, LVX 30, CEFT 250, TZB 87.5, TGC 20, AVI 30, FOF 1000
[6] = LQC: nominal 1 mg/L (levofloxacin, avibactam 0.5; fosfomycin 10)
[7] = MQC: nominal mg/L CAZ 75, FEP 100, PIP 150, ATM 150, MEM 100, DOR 87.5, LVX 15, CEFT 125, TZB 43.75, TGC 10, AVI 15, FOF 500

| Compound | Mean accuracy (%), Table S15 ([2]; HQC (nominal as E15)) [%] | Mean accuracy (%), Table S15 ([2]; LQC (nominal as E13)) [%] | Mean accuracy (%), Table S15 ([2]; MQC (nominal as E14)) [%] | Mean accuracy (%), Table S17 ([2]; HQC (nominal as E15)) [%] | Mean accuracy (%), Table S17 ([2]; LQC (nominal as E13)) [%] | Mean accuracy (%), Table S17 ([2]; MQC (nominal as E14)) [%] | Mean accuracy (%), Table S16 ([2]; HQC (nominal as E15)) [%] | Mean accuracy (%), Table S16 ([2]; LQC (nominal as E13)) [%] | Mean accuracy (%), Table S16 ([2]; MQC (nominal as E14)) [%] | Mean accuracy (%), Table S18 ([2]; HQC (nominal as E15)) [%] | Mean accuracy (%), Table S18 ([2]; LQC (nominal as E13)) [%] | Mean accuracy (%), Table S18 ([2]; MQC (nominal as E14)) [%] | Mean accuracy (%), Table S11 ([2]; HQC (nominal as E15)) [%] | Mean accuracy (%), Table S11 ([2]; LQC (nominal as E13)) [%] | Mean accuracy (%), Table S11 ([2]; MQC (nominal as E14)) [%] | Mean accuracy (%), Table S13 ([2]; HQC (nominal as E15)) [%] | Mean accuracy (%), Table S13 ([2]; LQC (nominal as E13)) [%] | Mean accuracy (%), Table S13 ([2]; MQC (nominal as E14)) [%] | Mean accuracy (%), Table S12 ([2]; HQC (nominal as E15)) [%] | Mean accuracy (%), Table S12 ([2]; LQC (nominal as E13)) [%] | further results |
| --- | --- | --- | --- | --- | --- | --- | --- | --- | --- | --- | --- | --- | --- | --- | --- | --- | --- | --- | --- | --- | --- |
| C[C@@H]1O[C@@H]1P(=O)(O)O [Fosfomycin, fosfomycin] | 98.5 | 103.1 | 94.7 | 96.3 | 110.6 | 99.5 | 94.6 | 103.6 | 95.4 | 101.8 | 104.7 | 98.2 | 98.4 | 102.2 | 92.1 | 95.6 | 101.8 | 94.6 | 94.0 | 104.5 | Mean total plasma concentration (range) ([1]; four patients, samples measured in triplicates): 11.3 to 746.9 mg/L; Mean accuracy (%), Table S12 ([2]; MQC (nominal as E14)): 92.4%; Mean accuracy (%), Table S14 ([2]; HQC (nominal as E15)): 97.7%; Mean accuracy (%), Table S14 ([2]; LQC (nominal as E13)): 100.8%; Mean accuracy (%), Table S14 ([2]; MQC (nominal as E14)): 90.6%; 32 Day Stability (%) [3]: 95.80%; Mean accuracy (%), Table S8 ([4]; HQC (nominal as E15)): 96.0%; Mean accuracy (%), Table S8 ([4]; LQC (nominal as E13)): 107.1%; Mean accuracy (%), Table S8 ([4]; MQC (nominal as E14)): 95.9%; Mean accuracy (%), Table S10 ([4]; HQC (nominal as E15)): 95.6%; Mean accuracy (%), Table S10 ([4]; LQC (nominal as E13)): 107.4%; Mean accuracy (%), Table S10 ([4]; MQC (nominal as E14)): 94.8%; Mean accuracy (%), Table S7 [4, 5]: 102.9%; Mean accuracy (%), Table S7 [4, 6]: 104.5%; Mean accuracy (%), Table S7 [4, 7]: 101.0%; Mean accuracy (%), Table S9 ([4]; HQC (nominal as E15)): 101.4%; Mean accuracy (%), Table S9 ([4]; LQC (nominal as E13)): 106.3%; Mean accuracy (%), Table S9 ([4]; MQC (nominal as E14)): 101.8% |
| CO/N=C(\C(=O)N[C@@H]1C(=O)N2C(C(=O)[O-])=C(C[N+]3(C)CCCC3)CS[C@H]12)c1csc(N)n1 [Cefepime, cefepime] | 95.3 | 100.9 | 102.0 | 94.8 | 108.8 | 98.7 | 93.2 | 91.1 | 94.9 | 93.2 | 107.6 | 102.8 | 89.3 | 98.6 | 87.2 | 89.0 | 102.0 | 94.3 | 89.6 | 100.5 | Mean total plasma concentration (range) ([1]; Patient 003, intermittent hemodialysis, cefepime 1 g every 12 h as a 4-h infusion): 21.6 to 157.5 mg/L; Stability verdict (within ±15% of nominal) ([2]; CAMHB samples stored at −30 °C, 4 weeks): instability; Mean accuracy (%), Table S12 ([2]; MQC (nominal as E14)): 97.4%; Mean accuracy (%), Table S14 ([2]; HQC (nominal as E15)): 95.7%; Mean accuracy (%), Table S14 ([2]; LQC (nominal as E13)): 111.6%; Mean accuracy (%), Table S14 ([2]; MQC (nominal as E14)): 101.3%; 32 Day Stability (%) [3]: 108.51%; Mean accuracy (%), Table S8 ([4]; HQC (nominal as E15)): 96.7%; Mean accuracy (%), Table S8 ([4]; LQC (nominal as E13)): 112.0%; Mean accuracy (%), Table S8 ([4]; MQC (nominal as E14)): 103.5%; Mean accuracy (%), Table S10 ([4]; HQC (nominal as E15)): 101.7%; Mean accuracy (%), Table S10 ([4]; LQC (nominal as E13)): 106.6%; Mean accuracy (%), Table S10 ([4]; MQC (nominal as E14)): 114.1%; Mean accuracy (%), Table S7 [4, 5]: 86.5%; Mean accuracy (%), Table S7 [4, 6]: 94.2%; Mean accuracy (%), Table S7 [4, 7]: 101.1% |
